Results on 12 compounds are retold here after ChEMBL document CHEMBL5500323, “Plasmodium falciparum topoisomerases: Emerging targets for anti-malarial therapy” (Eur J Med Chem, 2024).

A short description of assay [1]: Inhibition of DNA topoisomerase II (unknown origin). Details: species or system Homo sapiens.
A short description of assay [2]: Inhibition of recombinant Plasmodium falciparum strain 3D7 Gyrase B expressed in Escherichia coli BL21 (DE3).
For the next assay, the target named is DNA gyrase (Escherichia coli, UniProt P0AES4+P0AES6). The experiment in a line: Inhibition of Escherichia coli DNA gyrase ATPase activity incubated for 80 mins. Format: protein-complex assay.
Assay [3] is described as follows: Inhibition of Plasmodium falciparum NF54 Gyrase B.
The nature of assay [4]: Inhibition of Plasmodium falciparum 3D7 Gyrase B.
A short description of assay [5]: Inhibition of C-terminal 6His-tagged Plasmodium falciparum Gyrase B expressed in Escherichia coli.
A further assay has as its target T1, DNA topoisomerase 2 (Plasmodium falciparum K1, UniProt P41001).
T1 sequence (P41001 whole entry): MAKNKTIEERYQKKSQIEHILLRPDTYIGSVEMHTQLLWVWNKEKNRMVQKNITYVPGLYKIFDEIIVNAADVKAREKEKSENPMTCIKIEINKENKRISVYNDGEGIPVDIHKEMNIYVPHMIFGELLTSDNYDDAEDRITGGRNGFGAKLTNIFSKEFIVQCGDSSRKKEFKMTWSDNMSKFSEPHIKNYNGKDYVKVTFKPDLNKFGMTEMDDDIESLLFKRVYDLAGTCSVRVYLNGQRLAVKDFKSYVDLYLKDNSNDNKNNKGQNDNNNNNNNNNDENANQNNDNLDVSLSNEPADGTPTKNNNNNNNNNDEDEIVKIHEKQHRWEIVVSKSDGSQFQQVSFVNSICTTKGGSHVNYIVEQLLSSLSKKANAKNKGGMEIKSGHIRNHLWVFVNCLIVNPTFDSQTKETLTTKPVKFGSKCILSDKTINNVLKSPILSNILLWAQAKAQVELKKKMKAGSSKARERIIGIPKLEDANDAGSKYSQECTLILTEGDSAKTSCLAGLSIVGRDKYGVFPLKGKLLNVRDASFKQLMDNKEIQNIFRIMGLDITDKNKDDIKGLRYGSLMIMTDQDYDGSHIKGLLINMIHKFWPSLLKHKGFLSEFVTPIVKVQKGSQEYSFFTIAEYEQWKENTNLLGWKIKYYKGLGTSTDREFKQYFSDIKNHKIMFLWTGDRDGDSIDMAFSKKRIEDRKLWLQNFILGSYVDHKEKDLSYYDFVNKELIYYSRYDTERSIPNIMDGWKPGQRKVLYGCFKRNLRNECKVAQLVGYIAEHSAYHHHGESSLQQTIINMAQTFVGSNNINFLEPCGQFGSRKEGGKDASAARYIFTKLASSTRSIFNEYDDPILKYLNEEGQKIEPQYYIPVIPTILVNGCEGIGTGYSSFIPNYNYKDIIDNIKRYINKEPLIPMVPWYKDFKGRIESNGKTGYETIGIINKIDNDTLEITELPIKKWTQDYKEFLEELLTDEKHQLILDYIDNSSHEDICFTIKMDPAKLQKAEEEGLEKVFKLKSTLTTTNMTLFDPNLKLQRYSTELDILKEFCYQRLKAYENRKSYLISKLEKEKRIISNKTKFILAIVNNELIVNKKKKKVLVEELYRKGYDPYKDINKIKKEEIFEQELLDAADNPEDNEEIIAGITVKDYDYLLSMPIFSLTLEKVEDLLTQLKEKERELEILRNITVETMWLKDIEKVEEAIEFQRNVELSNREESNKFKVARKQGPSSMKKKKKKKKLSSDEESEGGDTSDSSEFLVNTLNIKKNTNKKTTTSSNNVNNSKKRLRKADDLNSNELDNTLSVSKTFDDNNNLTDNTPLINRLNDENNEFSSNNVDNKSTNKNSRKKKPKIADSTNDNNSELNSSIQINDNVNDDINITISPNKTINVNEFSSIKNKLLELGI
Description: Inhibition of Plasmodium falciparum isolate K1 DNA topoisomerase 2.

Assay [6] in a line: Inhibition of Plasmodium falciparum DNA topoisomerase VI.

`COc1ccc2ncc(C#N)c(CCN3CCC(NCc4cc5c(cn4)OCS5)CC3)c2c1`: in assay [1], it took 0.6 µM to reach half-maximal inhibition (IC50). On to `CO[C@@H]1[C@@H](OC(=O)c2ccc(C)[nH]2)[C@@H](O)[C@H](Oc2ccc3c(O)c(NC(=O)c4c[nH]c(C(=O)Nc5c(O)c6ccc(O[C@@H]7OC(C)(C)[C@H](OC)[C@@H](OC(=O)c8ccc(C)[nH]8)[C@H]7O)c(C)c6oc5=O)c4C)c(=O)oc3c2C)OC1(C)C`, for which the 50% inhibitory concentration (IC50) (commonly the concentration that inhibits the measured activity by half) in assay [2] was 40 µM. On DNA gyrase, `O=C1c2ccccc2C(=O)c2c1cc(S(=O)(=O)O)c(O)c2O` [Alizarin Red S] yielded an IC50 of 55.6 µM. The compound `O=C(O)c1cn(C2CC2)c2cc(N3CCNCC3)c(F)cc2c1=O` [CIPROFLOXACIN] came in with a half-inhibitory concentration (IC50) in assay [1] of 35 µM.

Consider `NC1CCN(c2c(F)cc3c(=O)c(C(=O)O)cn(C4CC4)c3c2Cl)C1` (configuration not stated) [CLINAFLOXACIN], for which, in assay [3], the half-maximal inhibitory concentration (IC50) was 3.2 µM. `COc1cc([C@@H]2c3cc4c(cc3[C@@H](O[C@@H]3O[C@@H]5CO[C@@H](C)O[C@H]5[C@H](O)[C@H]3O)[C@H]3COC(=O)[C@H]23)OCO4)cc(OC)c1O` [ETOPOSIDE] yielded an IC50 in assay [1] of 20 µM. `C[n+]1c2cc(N)ccc2cc2ccc(N)cc21` [EUFLAVINE]: it took 1 µM to reach half-maximal inhibition in assay [4] (IC50).

In assay [3], `COc1c(N2CCNC(C)C2)c(F)cc2c(=O)c(C(=O)O)cn(C3CC3)c12` (configuration not stated) [GATIFLOXACIN] had a half-maximal inhibitory concentration (IC50) of 12 µM. In assay [5], `CO[C@@H]1[C@@H](OC(N)=O)[C@@H](O)[C@H](Oc2ccc3c(O)c(NC(=O)c4ccc(O)c(CC=C(C)C)c4)c(=O)oc3c2C)OC1(C)C` [NOVOBIOCIN] gave a half-inhibitory concentration (IC50) of 30 µM. With `O=c1c(O)cccc2cc(O)c(O)c(O)c12` [PURPUROGALLIN], the half-inhibitory concentration (IC50) on DNA gyrase is 9.56 µM. As for `COc1ccc2nc3cc(Cl)ccc3c(Nc3cc(CN4CCCC4)c(O)c(CN4CCCC4)c3)c2n1` [PYRONARIDINE], the IC50 against DNA topoisomerase 2 worked out at 5.5 µM. Take `C[C@@H]1C[C@H]2O[C@@H]2/C=C\C=C\C(=O)Cc2c(Cl)c(O)cc(O)c2C(=O)O1` [RADICICOL]: the half-maximal inhibitory concentration (IC50) in assay [6] is 80 µM.
